# Where two headings read alike, the source gives them in different places. Marks after values point to notes of the source that are not given here.
# What was measured:
# in vitro = details: human, HaCaT keratinocytes
# Protocol: (§5) The cells were then incubated for 72 hours. Percentage cytotoxicity was determined using MTT assay.
# [1] = tested on: Human Keratinocytes (HaCaT); assay: In vitro combination methotrexate and IS181 (MTT); details: for 50% Inhibition (concentration of MTX): 72 h
# Protocol: as §5
# TNF-α [2] = assay: LPS stimulated TNF-α secretion in RAW264.7; assay type: cell-based, Mouse; details: RAW264.7 + LPS
# Protocol: (§1) Effect on pro-inflammatory cytokines against LPS stimulation: TNF-α; IL-6; IL-1-β: Cell lines: Murine macrophage cell line (RAW264.7); test item: IS181; experimental steps: pretreatment of cells with TI for 2 hours; stimulation with LPS (100 ng/ml) for 24 hours; supernatant collection for cytokine analysis; concentration range: o.1 μg/ml-500 μg/ml (duplicate wells); Cytokines: TNF-α; IL-6; IL-1-β; Method of estimating cytokines: ELISA; positive control: dexamethasone.
# (§2) Cell line: RAW264.7 (Mouse macrophages); TI treatment regimen: Pretreatment for 2 h; TI Concentration range: 0.1 μg/ml-500 μg/ml (duplicate wells); LPS stimulation: 100 ng/ml; Time point for supernatants collection: 24 h; Method of estimation: ELISA; Positive control: Dexamethasone
# IL-6 [3] = assay: LPS stimulated IL-6 secretion in RAW264.7; assay type: cell-based, Mouse; details: RAW264.7 + LPS
# Protocol: as §1, §2
# IL-1-β = assay: LPS stimulated IL-1-β secretion in RAW264.7; assay type: cell-based, Mouse; details: RAW264.7 + LPS
# Protocol: as §1, §2
# TNF-α [4] = assay: TNF-α level in TNF-α stimulated HaCaT; assay type: cell-based, Human
# Protocol: (§3) Effect on pro-inflammatory cytokines against TNF-α/LPS+PMA stimulation: TNF-α; IFN-γ; TARC; TSLP; IL-6; IL-8: Cell lines: Human keratinocytes (HaCaT); test item (TI); IS181; experimental steps: pre-treatment of cells with TI for 2 hours; stimulation with TNF-α: 20 ng/ml; stimulation with LPS+PMA-10 μg/ml LPS+40 ng/ml PMA; supernatant collection for cytokine analysis after 24 hours; concentration range: 0.1 μg/ml-100 μg/ml (duplicate wells); cytokines: TNF-α; IFN-γ; TARC; TSLP; IL-6; IL-8. Method of estimating cytokines: ELISA; positive control: dexamethasone.
# (§4) Cell line: HaCaT (Human Keratinocytes); TI Treatment regimen: Pretreatment for 2 h; TI Concentration range: 0.1 μg/ml-100 μg/ml (duplicate wells); TNF-α stimulation: 20 ng/ml; LPS+PMA stimulation: 10 μg/ml LPS+40 ng/ml PMA; Time point for supernatants collection: 24 h; Method of estimation: ELISA; Positive control: Dexamethasone
# IFN-γ = assay: TNF-α stimulated IFN-γ secretion in HaCaT; assay type: cell-based, Human; details: HaCaT + TNF-α
# Protocol: as §3, §4
# TARC = assay: TNF-α stimulated TARC secretion in HaCaT; assay type: cell-based, Human; details: HaCaT + TNF-α
# Protocol: as §3, §4
# IL-6 [5] = assay: LPS+PMA stimulated IL-6 secretion in HaCaT; assay type: cell-based, Human
# Protocol: as §3, §4
# IL-8 = assay: LPS+PMA stimulated IL-8 secretion in HaCaT; assay type: cell-based, Human; details: HaCaT + LPS + PMA
# Protocol: as §3, §4
# TSLP = assay: LPS+PMA stimulated TSLP secretion in HaCaT; assay type: cell-based, Human; details: HaCaT + LPS + PMA
# Protocol: as §3, §4
smiles,measurement,setting,value
"CN(Cc1cnc2nc(N)nc(N)c2n1)c1ccc(C(=O)N[C@@H](CCC(=O)O)C(=O)O)cc1 [MTX, methotrexate]","cytotoxicity at 72 h, 0.01 µM",in vitro,12.3%
same,"cytotoxicity at 72 h, 0.1 µM",in vitro,1.9%
same,"cytotoxicity at 72 h, 0.25 µM",in vitro,21.3%
same,"cytotoxicity at 72 h, 0.5 µM",in vitro,23.9%
same,"cytotoxicity at 72 h, 1 µM",in vitro,27.7%
same,"cytotoxicity at 72 h, 5 µM",in vitro,22%
same,50% Inhibition (concentration of MTX),[1]; with IS181 10 μg/ml,50% inhibition was still not achieved
same,50% Inhibition (concentration of MTX),[1]; with IS181 50 μg/ml,50% inhibition was still not achieved
same,IC50,"[1]; read-out: 50% Inhibition (concentration of MTX), 72 h, MTX Alone",> 5000 nM
same,IC50,"[1]; read-out: 50% Inhibition (concentration of MTX), 72 h, with IS181 10 μg/ml",> 5000 nM
same,IC50,"[1]; read-out: 50% Inhibition (concentration of MTX), 72 h, with IS181 50 μg/ml",> 5000 nM
same,IC50,"[1]; read-out: 50% Inhibition (concentration of MTX), 72 h, with IS181 500 μg/ml",1000 to 5000 nM
same,IC50,"[1]; read-out: 50% Inhibition (concentration of MTX), 72 h, with IS181 1000 μg/ml",10 nM
same,IC50,"[1]; read-out: 50% Inhibition (concentration of MTX), 72 h, with IS181 2000 μg/ml",< 10 nM
same,IC50,"[1]; read-out: 50% Inhibition (concentration of MTX), 72 h, with IS181 5000 μg/ml",< 10 nM
"C[C@@H]1C[C@H]2[C@@H]3CCC4=CC(=O)C=C[C@]4(C)[C@@]3(F)[C@@H](O)C[C@]2(C)[C@@]1(O)C(=O)CO [Dexamethasone, reference compound]",TNF-α % decrease with respect to LPS,TNF-α [2]; 0.5 μg /ml,54.1%
same,TNF-α Conc (pg/ml),TNF-α [2]; 0.5 μg /ml,451.7*** pg/ml
same,TNF-α % decrease with respect to LPS,TNF-α [2]; 1 μg /ml,70.4%
same,TNF-α Conc (pg/ml),TNF-α [2]; 1 μg /ml,291.8*** pg/ml
same,TNF-α % decrease with respect to LPS,TNF-α [2]; 10 μg/ml,71.2%
same,TNF-α Conc (pg/ml),TNF-α [2]; 10 μg/ml,283.1*** pg/ml
same,IL-6 % decrease with respect to LPS,IL-6 [3]; 0.5 μg /ml,45.9%
same,IL-6 Conc (pg/ml),IL-6 [3]; 0.5 μg /ml,567.6** pg/ml
same,IL-6 % decrease with respect to LPS,IL-6 [3]; 1 μg /ml,61.3%
same,IL-6 Conc (pg/ml),IL-6 [3]; 1 μg /ml,405.9*** pg/ml
same,IL-6 % decrease with respect to LPS,IL-6 [3]; 10 μg/ml,72.3%
same,IL-6 Conc (pg/ml),IL-6 [3]; 10 μg/ml,291.2*** pg/ml
same,IL-1-β % decrease with respect to LPS,IL-1-β; 0.5 μg /ml,53.6%
same,IL-1-β Conc (pg/ml),IL-1-β; 0.5 μg /ml,9.6* pg/ml
same,IL-1-β % decrease with respect to LPS,IL-1-β; 1 μg /ml,44.6%
same,IL-1-β Conc (pg/ml),IL-1-β; 1 μg /ml,11.4* pg/ml
same,IL-1-β % decrease with respect to LPS,IL-1-β; 10 μg/ml,39.0%
same,IL-1-β Conc (pg/ml),IL-1-β; 10 μg/ml,12.6* pg/ml
same,TNF-α % decrease with respect to TNF-α,TNF-α [4]; 1 μM,17.6%
same,TNF-α Conc,TNF-α [4]; 1 μM,17423.9 pg/mL
same,TNF-α % decrease with respect to TNF-α,TNF-α [4]; 10 μM,31.2%
same,TNF-α Conc,TNF-α [4]; 10 μM,14536.0 pg/mL
same,TNF-α % decrease with respect to TNF-α,TNF-α [4]; 25 μM,4.7%
same,TNF-α Conc,TNF-α [4]; 25 μM,20138.0 pg/mL
same,IFN-γ % decrease with respect to TNF-α,IFN-γ; 1 μM,34.5%
same,IFN-γ Conc (pg/ml),IFN-γ; 1 μM,31.2*** pg/ml
same,IFN-γ % decrease with respect to TNF-α,IFN-γ; 10 μM,25.4%
same,IFN-γ Conc (pg/ml),IFN-γ; 10 μM,35.5** pg/ml
same,IFN-γ % decrease with respect to TNF-α,IFN-γ; 25 μM,31.2%
same,IFN-γ Conc (pg/ml),IFN-γ; 25 μM,32.8** pg/ml
same,TARC % decrease with respect to TNF-α,TARC; 1 μM,13.2%
same,TARC Conc,TARC; 1 μM,52.5 pg/mL
same,TARC % decrease with respect to TNF-α,TARC; 10 μM,13.5%
same,TARC Conc,TARC; 10 μM,52.3 pg/mL
same,TARC % decrease with respect to TNF-α,TARC; 25 μM,13.5%
same,TARC Conc,TARC; 25 μM,52.3 pg/mL
same,IL-6 % decrease with respect to LPS + PMA,IL-6 [5]; 1 μM,100.0%
same,IL-6 Conc (pg/ml),IL-6 [5]; 1 μM,0.0*** pg/ml
same,IL-6 % decrease with respect to LPS + PMA,IL-6 [5]; 10 μM,94.8%
same,IL-6 Conc (pg/ml),IL-6 [5]; 10 μM,0.8*** pg/ml
same,IL-6 % decrease with respect to LPS + PMA,IL-6 [5]; 25 μM,84.2%
same,IL-6 Conc (pg/ml),IL-6 [5]; 25 μM,2.4*** pg/ml
same,IL-8 % decrease with respect to LPS + PMA,IL-8; 1 μM,65.1%
same,IL-8 Conc (pg/ml),IL-8; 1 μM,136.9*** pg/ml
same,IL-8 % decrease with respect to LPS + PMA,IL-8; 10 μM,72.6%
same,IL-8 Conc (pg/ml),IL-8; 10 μM,107.4*** pg/ml
same,IL-8 % decrease with respect to LPS + PMA,IL-8; 25 μM,67.9%
same,IL-8 Conc (pg/ml),IL-8; 25 μM,125.7*** pg/ml
same,TSLP % decrease with respect to LPS + PMA,TSLP; 1 μM,46.4%
same,TSLP Conc (pg/ml),TSLP; 1 μM,66.6** pg/ml
same,TSLP % decrease with respect to LPS + PMA,TSLP; 10 μM,41.9%
same,TSLP Conc (pg/ml),TSLP; 10 μM,72.1** pg/ml
same,TSLP % decrease with respect to LPS + PMA,TSLP; 25 μM,44.7%
same,TSLP Conc (pg/ml),TSLP; 25 μM,68.7** pg/ml
